Laboratory results taken from patent US20120232062A1, “AZAINDAZOLES TO TREAT FLAVIVIRIDAE VIRUS INFECTION” (EIGER BIOPHARMACEUTICALS, INC., priority 2009, published 2012).

Tested on: Caco-2 cell line
Test: Caco-2 permeability testing
Type: in vitro ADME, human
Set-up: Efflux (first figure of Efflux/permeability), Papp (B-A) / Permeability (second figure of Efflux/permeability), Papp (A-B): unit not given here
Conditions: for Permeability (second figure of Efflux/permeability), Papp (A-B): Caco-2, A-B; for Permeability (second figure of Efflux/permeability), Papp (A-B) / Efflux (first figure of Efflux/permeability), Papp (B-A): 90 min; for Efflux (first figure of Efflux/permeability), Papp (B-A): Caco-2, B-A; for intestinal absorption predicted by in vitro PK profiles: in words
Description: Intestinal epithelium permeability is a critical characteristic that determines the rate and extent of human absorption and affects bioavailability of a drug candidate. Poor intestinal permeability leads to limited absorption. Generally, higher absorption is preferred. The Caco-2 cell line is a human colon adeno-carcinoma cell line that resembles the epithelial lining of the human small intestine. Several transport proteins that are expressed in human intestinal epithelium are also expressed in the Caco-2 cell model. Some transporter proteins are efflux systems which mediate the secretion of compounds from inside the cell back to the apical lumen (representative of the intestinal lumen), limiting overall absorption. In a permeability assay, the apparent permeability coefficient is measured between the apical to basolateral sides of a cell monolayer, Papp (A-B), and the basolateral to the apical side, Papp (B-A). Papp (A-B)<2×10^−6 cm/s is predictive of low permeability to the basolateral side, 2×10^−6 cm/s<Papp (A-B)<20×10^−6 cm/s is predictive of medium permeability, and Papp (A-B)>20×10^−6 cm/s is predictive of high permeability. In the B-A permeability assay, Papp (B-A) is measured and compounds evaluated for efflux potential. Together, these assay results are reported as a ratio of Papp (B-A) to Papp (A-B). Papp (B-A)/Papp (A-B)>3 are likely to be transported by one of the efflux systems, and have poor absorption. Papp (B-A)/Papp (A-B)<3 are likely to show reasonable intestinal absorption. An in vitro drug absorption assay suitable for use in predicting intestinal absorption of the compounds useful in the methods of the invention is described in this example. The embodiments of this assay described in this example were developed by Shanghai ChemPartner Co., Ltd., a corporation of China with its principal office located at 720 Cailun Road, Building No. 3, Shanghai 201203, China.
Caco-2 (ATCC, catalog No. HTB-37™) cells are cultured in growth medium (MEM+10% FBS+1% NEAA). The growth medium is prepared by adding 50 mL FBS and 5 mL NEAA to 445 mL of MEM or by adjusting the final volume according to actual needs. Trypsin-EDTA (Invitrogen, Cat #25200-072) is also used.
Hanks Balanced Salt Solution (HBSS, Invitrogen, Cat #14025-092) with 25 mM HEPES, pH 7.4, HBSS buffer with 0.2% DMSO (50 μL DMSO into 25 ml HBSS buffer), and HBSS buffer with 0.4% DMSO (100 μL DMSO into 25 ml HBSS buffer) are used.
10 mM stock solutions of a compound is prepared in DMSO and Lucifer Yellow in assay buffer using the formula (Actual Weight/Molecular Weight)/mL solvent=10 mM. Erythromycin, Metoprolol, and Atenolol are used as reference compounds. Donor solutions (10 μM for compounds and 5 μM for Lucifer Yellow) are prepared. For A-B, 4 μL of 10 mM compound stock solution and 2 μL of 10 mM Lucifer Yellow stock solution are loaded into 4 mL of HBSS buffer, and centrifuged (5 min, 4000 rpm) to precipitate undissolved particles. Supernatants are collected for compound dosing. For B-A, 4 μL (compounds) of 10 mM compound stock solution is added to 4 mL HBSS buffer with 0.2% DMSO, and centrifuged (5 min, 4000 rpm) to precipitate undissolved particles. Supernatants are collected for compound dosing.
Receiver solutions are prepared. For A-B, the solution is HBSS buffer with 0.4% DMSO. For B-A, 2 μL of 10 mM Lucifer Yellow stock solution is added to 4 mL of HBSS buffer with 0.2% DMSO. Compound solutions are prepared for standard curve (3 μM/1 μM/0.2 μM/0.04 μM/0.01 μM/0.005 μM):
1× solution: 3 μL of 20× solution (0.1-60 μM)+57 μL 0.4% DMSO HBSS+60 μL acetonitrile (ACN) with internal standard (IS, 200 ng/mL Osalmid). The assay was performed as described below
Stock cultures are maintained in MEM+10% FBS+1% NEAA, grown in 75 cm^2 tissue culture treated flasks and split (passed) 2 times weekly to maintain desired confluence. For maintenance passage, trypsinized cells are routinely distributed into new flasks at a standard passage ratio of 1:4. […]

| Compound | Permeability (second figure of Efflux/permeability), Papp (A-B) | Efflux (first figure of Efflux/permeability), Papp (B-A) | Efflux/Permeability ratio (desired <3) (Caco-2, Papp (B-A)/Papp (A-B)) | intestinal absorption predicted by in vitro PK profiles |
| --- | --- | --- | --- | --- |
| Cn1nc(C(=O)NC2CCN(CCN3CCCCC3)CC2)c2ccc(N3CCCCCC3)nc21 [EBP1047] | 11 | 8 | 0.8 | moderate intestinal absorption |
| CCN1CCC(NC(=O)c2nn(C)c3nc(N4CCCCCC4)ccc23)CC1 [EBP1595] | 15 | 14 | – | moderate intestinal absorption |
| Cn1nc(C(=O)NC2CCN(CCN3CCCC3)CC2)c2ccc(N3CCCCCC3)nc21 [EBP1597] | 9 | 7 | – | moderate intestinal absorption |
| CC(C)N1CCC(NC(=O)c2nn(C)c3nc(N4CCCCCC4)ccc23)CC1 [EBP1604] | – | – | – | moderate intestinal absorption |
